Nine compounds from patent US20250092043A1, “Kinase Inhibitors and Degraders” (Incyte Corporation, priority 2023, published 2025) can be followed below.

For one assay, the target named is T1, JAK2 (Homo sapiens, UniProt O60674, V617F).
T1 construct: their effect on JAK2 protein degradation in SET2 cells; host or cells: SET2 cells (human essential thrombocythemia)
T1 sequence (O60674 whole entry V617F): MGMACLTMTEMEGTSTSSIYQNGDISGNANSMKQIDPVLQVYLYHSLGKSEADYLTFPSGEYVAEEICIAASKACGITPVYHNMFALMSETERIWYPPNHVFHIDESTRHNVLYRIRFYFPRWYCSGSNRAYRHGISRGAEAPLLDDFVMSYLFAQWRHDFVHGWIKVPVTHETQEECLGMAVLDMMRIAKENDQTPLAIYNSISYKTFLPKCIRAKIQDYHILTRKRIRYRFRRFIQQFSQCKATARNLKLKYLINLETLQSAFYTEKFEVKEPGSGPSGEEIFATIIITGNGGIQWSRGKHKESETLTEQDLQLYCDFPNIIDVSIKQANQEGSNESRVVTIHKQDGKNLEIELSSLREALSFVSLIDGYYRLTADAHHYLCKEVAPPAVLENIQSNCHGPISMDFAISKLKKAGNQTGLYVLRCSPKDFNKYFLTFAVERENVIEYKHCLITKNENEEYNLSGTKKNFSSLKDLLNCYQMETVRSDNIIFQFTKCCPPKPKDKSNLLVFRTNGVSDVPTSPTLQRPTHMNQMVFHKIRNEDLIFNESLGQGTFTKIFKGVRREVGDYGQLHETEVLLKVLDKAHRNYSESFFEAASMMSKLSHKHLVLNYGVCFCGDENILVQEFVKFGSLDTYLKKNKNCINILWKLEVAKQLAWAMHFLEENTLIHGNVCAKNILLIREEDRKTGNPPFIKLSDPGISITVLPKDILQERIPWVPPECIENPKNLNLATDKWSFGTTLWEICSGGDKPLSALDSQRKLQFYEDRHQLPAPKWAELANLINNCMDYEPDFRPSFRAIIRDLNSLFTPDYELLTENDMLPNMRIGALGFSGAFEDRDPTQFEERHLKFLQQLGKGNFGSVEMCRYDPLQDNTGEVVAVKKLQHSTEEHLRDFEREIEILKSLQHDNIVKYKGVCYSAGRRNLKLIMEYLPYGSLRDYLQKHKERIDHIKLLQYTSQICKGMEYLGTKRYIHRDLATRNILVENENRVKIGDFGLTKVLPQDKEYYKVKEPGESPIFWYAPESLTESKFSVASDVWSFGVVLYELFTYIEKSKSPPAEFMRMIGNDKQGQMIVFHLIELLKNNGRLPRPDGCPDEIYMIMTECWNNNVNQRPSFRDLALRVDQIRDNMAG
Put plainly: Western blot quantitation of JAK2 degradation in SET2 cells. Format: cell-based. The note with it: 5 μM compound, 8 hours treatment, western blot densitometry vs. DMSO vehicle. The procedure:
Example E. Western Blot Analysis of JAK2 Dependent SET2 Cells Treated with Compounds of the Present Disclosure
SET2 cells (DSMZ, catalog number ACC 608) are isolated from a person with human essential thrombocythemia and carry the JAK2 V617F mutation.
SET2 cells were cultured in RPMI culture medium (Gibco, catalog number 11875085) supplemented with 1% penicillin-streptomycin-glutamine (Thermo Fisher Scientific, catalog number 10378016) and 20% fetal bovine serum (Gibco, catalog number 10438034). Cultured cells were maintained at 37° C., 5% CO2 in the incubator.
Approximately 1,000,000 cells/well were added in 6-well plate containing 1.5 ml culture media with specified concentrations of compounds of the present disclosure or DMSO control. Cells were treated with concentrations of 10 uM, 5 uM, 1 uM, and 0.5 uM. Proteasome inhibitor MG-132 (Cell signaling, catalog number 2194) was added at 20 uM to an additional 10 uM compound treatment. The treatment period was 8 hours. After 8 hours, cells were collected in 1.5 mL microcentrifuge tubes. Tubes were centrifuged at 1500 rpm for 5 min. Supernatant was aspirated and samples were washed with 1 mL of cold PBS. The samples were centrifuged again at 1500 rpm for 5 min, supernatant was aspirated. The sample pellets were lysed using 150 μL of 1× lysing buffer (Cell Signaling Technologies—catalog number 9803S) supplemented with 1× Halt™ Protease and Phosphatase Inhibitor Cocktail (Thermo Fisher Scientific—catalog number 78447). Using Pierce™ BCA Protein Assay Kit (Thermo Fisher Scientific—catalog number 23225), protein concentration of the samples were quantitated. After normalizing sample concentration to approximately 20 ug/well, samples were loaded onto 4-12% Tris-glycine gels. Gels were transferred to nitrocellulose membranes using iBlot 2 Dry Blotting System and iBlot™ 2 Transfer Stacks, nitrocellulose (Thermo Fisher Scientific—catalog number IB23001). Following transfer, membranes were blocked with StartingBlock (Thermo Fisher Scientific—catalog number 37543). After 1 hour of blocking membranes, they were probed for JAK2, pSTAT5, STAT5, CRBN, and GAPDH (Cell Signaling—catalog numbers 3230, 4322, 25656, 71810, and 5174 respectively).
Compounds of the present disclosure were screened at various concentrations to determine their effect on JAK2 protein degradation in SET2 cells, using methods as described above. DMSO was used as the vehicle control with no PROTAC® added. Co-administration of 20 μM of the proteasome inhibitor MG-132 with the PROTAC® compound at its highest concentration (i.e., 5 or 10 μM) tested was conducted to support the hypothesis that the degradation was driven by the ubiquitin-proteosome system (UPS). Degradation was evaluated by western blot densitometry quantitation using the FluorChem M instrument software to analyze the intensity of the JAK2 band signal at various concentrations of PROTAC® compound vs. the JAK2 band signal of the DMSO vehicle. It is noted that ˜82% of JAK2 exists as the V617F mutant, with the remaining 18% of JAK2 being WT. Therefore, if the V617F mutant JAK2 is selectively degraded over the WT, the maximum degradation is ˜80%. Degradation was graded as A: […]; B: ≥40% to <60% degradation; C: ≥20% to <40% degradation, D: <20% to ≥10%; E<10%. ** refers to degradation at 0.5 μM.
`COC(=O)N[C@@H]1CC[C@@H](n2c(=O)n(C)c3cnc4[nH]c(-c5ccc(C(=O)N6CCN(c7ccc8c(c7)C(=O)N(C7CCC(=O)NC7=O)C8=O)CC6)cc5)c(-c5ccc6c(cnn6C(C)C)c5)c4c32)C1` (stereo partly drawn) [Example 62, Methyl((1R,3R)-3-(7-(4-(4-(2-(2,6-dioxopiperidin-3-yl)-1,3-dioxoisoindolin-5-yl)piperazine-1-carbonyl)phenyl)-8-(1-isopropyl-1H-indazol-5-yl)-3-methyl-2-oxo-3,6-dihydroimidazo[4,5-d]pyrrolo[2,3-b]pyridin-1(2H)-yl)cyclopentyl)carbamate]: the “JAK2 % Degradation in SET2” value is listed as “E (E<10%)”.

As to `COC(=O)N[C@@H]1CC[C@@H](n2c(=O)n(C)c3cnc4[nH]c(-c5ccc(C(=O)N6CCC(CN7CCN(c8cccc9c8C(=O)N(C8CCC(=O)NC8=O)C9)CC7)CC6)cc5)c(-c5ccc6c(cnn6C(C)C)c5)c4c32)C1` (stereo partly drawn) [Example 63, Methyl((1R,3R)-3-(7-(4-(4-((4-(2-(2,6-dioxopiperidin-3-yl)-3-oxoisoindolin-4-yl)piperazin-1-yl)methyl)piperidine-1-carbonyl)phenyl)-8-(1-isopropyl-1H-indazol-5-yl)-3-methyl-2-oxo-3,6-dihydroimidazo[4,5-d]pyrrolo[2,3-b]pyridin-1(2H)-yl)cyclopentyl)carbamate], the “JAK2 % Degradation in SET2” value is on record as “C (C: ≥20% to <40% degradation)”.

Staying with this assay, now noted: 10 μM compound, 8 hours treatment, western blot densitometry vs. DMSO vehicle.
For `CN[C@@H](C)C(=O)N[C@H](C(=O)N1C[C@@H](NC(=O)[C@H]2CC[C@H](CNC(=O)c3ccc(-c4[nH]c5ncc6c(c5c4-c4ccc5c(cnn5C(C)C)c4)n([C@@H]4CC[C@@H](NC(=O)OC)C4)c(=O)n6C)cc3F)CC2)C[C@H]1C(=O)N[C@@H]1CCCc2ccccc21)C1CCCCC1` [Example 47, Methyl((1R,3R)-3-(7-(4-((((trans)-4-(((3S,5S)-1-((S)-2-cyclohexyl-2-((S)-2-(methylamino)propanamido)acetyl)-5-(((R)-1,2,3,4-tetrahydronaphthalen-1-yl)carbamoyl)pyrrolidin-3-yl)carbamoyl)cyclohexyl)methyl)carbamoyl)-3-fluorophenyl)-8-(1-isopropyl-1H-indazol-5-yl)-3-methyl-2-oxo-3,6-dihydroimidazo[4,5-d]pyrrolo[2,3-b]pyridin-1(2H)-yl)cyclopentyl)carbamate], the “JAK2 % Degradation in SET2” value is recorded as “C (C: ≥20% to <40% degradation)”.

As for `CN[C@@H](C)C(=O)N[C@H](C(=O)N1C[C@@H](NC(=O)COCCOCCNC(=O)c2ccc(-c3[nH]c4ncc5c(c4c3-c3ccc4c(cnn4C(C)C)c3)n([C@@H]3CC[C@@H](NC(=O)OC)C3)c(=O)n5C)cc2F)C[C@H]1C(=O)N[C@@H]1CCCc2ccccc21)C1CCCCC1` [Example 51, Methyl((1R,3R)-3-(7-(4-((2-(2-(2-(((3S,5S)-1-((S)-2-cyclohexyl-2-((S)-2-(methylamino)propanamido)acetyl)-5-(((R)-1,2,3,4-tetrahydronaphthalen-1-yl)carbamoyl)pyrrolidin-3-yl)amino)-2-oxoethoxy)ethoxy)ethyl)carbamoyl)-3-fluorophenyl)-8-(1-isopropyl-1H-indazol-5-yl)-3-methyl-2-oxo-3,6-dihydroimidazo[4,5-d]pyrrolo[2,3-b]pyridin-1(2H)-yl)cyclopentyl)carbamate], the “JAK2 % Degradation in SET2” value was “B (B: ≥40% to <60% degradation)”.

For `COC(=O)N[C@@H]1CC[C@@H](n2c(=O)n(C)c3cnc4[nH]c(-c5ccc(C(=O)N6CCC(CC(=O)Nc7ccc8c(c7)CN(C7CCC(=O)NC7=O)C8=O)CC6)c(F)c5)c(-c5ccc6c(cnn6C(C)C)c5)c4c32)C1` (stereo partly drawn) [Example 53, Methyl((1R,3R)-3-(7-(4-(4-(2-((2-(2,6-dioxopiperidin-3-yl)-1-oxoisoindolin-5-yl)amino)-2-oxoethyl)piperidine-1-carbonyl)-3-fluorophenyl)-8-(1-isopropyl-1H-indazol-5-yl)-3-methyl-2-oxo-3,6-dihydroimidazo[4,5-d]pyrrolo[2,3-b]pyridin-1(2H)-yl)cyclopentyl)carbamate], the “JAK2 % Degradation in SET2” value was “C (C: ≥20% to <40% degradation)”.

On to `COC(=O)N[C@@H]1CC[C@@H](n2c(=O)n(C)c3cnc4[nH]c(-c5ccc(C(=O)NC[C@H]6CC[C@H](C(=O)Nc7ccc8c(c7)CN(C7CCC(=O)NC7=O)C8=O)CC6)c(F)c5)c(-c5ccc6c(cnn6C(C)C)c5)c4c32)C1` (stereo partly drawn) [Example 54, Methyl((1R,3R)-3-(7-(4-((((trans-)-4-((2-(2,6-dioxopiperidin-3-yl)-1-oxoisoindolin-5-yl)carbamoyl)cyclohexyl)methyl)carbamoyl)-3-fluorophenyl)-8-(1-isopropyl-1H-indazol-5-yl)-3-methyl-2-oxo-3,6-dihydroimidazo[4,5-d]pyrrolo[2,3-b]pyridin-1(2H)-yl)cyclopentyl)carbamate], for which the “JAK2 % Degradation in SET2” value is “C (C: ≥20% to <40% degradation)”.

Regarding `COC(=O)N[C@@H]1CC[C@@H](n2c(=O)n(C)c3cnc4[nH]c(-c5ccc(C(=O)N6CCC(C(=O)Nc7ccc8c(c7)CN(C7CCC(=O)NC7=O)C8=O)CC6)c(F)c5)c(-c5ccc6c(cnn6C(C)C)c5)c4c32)C1` (stereo partly drawn) [Example 58, Methyl((1R,3R)-3-(7-(4-(4-((2-(2,6-dioxopiperidin-3-yl)-1-oxoisoindolin-5-yl)carbamoyl)piperidine-1-carbonyl)-3-fluorophenyl)-8-(1-isopropyl-1H-indazol-5-yl)-3-methyl-2-oxo-3,6-dihydroimidazo[4,5-d]pyrrolo[2,3-b]pyridin-1(2H)-yl)cyclopentyl)carbamate], the “JAK2 % Degradation in SET2” value is “E (E<10%)”.

For the compound `COC(=O)N[C@@H]1CC[C@@H](n2c(=O)n(C)c3cnc4[nH]c(-c5ccc(C(=O)N6CCC(C(=O)Nc7ccc8c(c7)CN(C7CCC(=O)NC7=O)C8=O)CC6)cc5)c(-c5ccc6c(cnn6C(C)C)c5)c4c32)C1` (stereo partly drawn) [Example 60, Methyl((1R,3R)-3-(7-(4-(4-((2-(2,6-dioxopiperidin-3-yl)-1-oxoisoindolin-5-yl)carbamoyl)piperidine-1-carbonyl)phenyl)-8-(1-isopropyl-1H-indazol-5-yl)-3-methyl-2-oxo-3,6-dihydroimidazo[4,5-d]pyrrolo[2,3-b]pyridin-1(2H)-yl)cyclopentyl)carbamate], the “JAK2 % Degradation in SET2” value is recorded as “C (C: ≥20% to <40% degradation)”.

As for `COC(=O)N[C@@H]1CC[C@@H](n2c(=O)n(C)c3cnc4[nH]c(-c5ccc(C(=O)N6CCC(CC(=O)Nc7ccc8c(c7)CN(C7CCC(=O)NC7=O)C8=O)CC6)cc5)c(-c5ccc6c(cnn6C(C)C)c5)c4c32)C1` (stereo partly drawn) [Example 61, Methyl((1R,3R)-3-(7-(4-(4-(2-((2-(2,6-dioxopiperidin-3-yl)-1-oxoisoindolin-5-yl)amino)-2-oxoethyl)piperidine-1-carbonyl)phenyl)-8-(1-isopropyl-1H-indazol-5-yl)-3-methyl-2-oxo-3,6-dihydroimidazo[4,5-d]pyrrolo[2,3-b]pyridin-1(2H)-yl)cyclopentyl)carbamate], the “JAK2 % Degradation in SET2” value is “C (C: ≥20% to <40% degradation)”.
